# Patent US20090088412A1, “COMPOSITION FOR TREATING CANCER CELLS AND PREPARATION METHOD THEREOF” (KAOHSIUNG MEDICAL UNIVERSITY, priority 2007, published 2009)
# Experiments:
# Hep G2 = experiment: MTT cytotoxicity test, Hep G2; format: cell-based, human; settings: liver cancer cell line, 72 hours
# Protocol: (§1) The bioactivities of the 25 new withanolide compounds of the present invention are further studied. The bioactivities are measured by examining cytotoxicity tests with 5 human cancer cell lines, including MCF-7 and MDA-MB-231 (which are the breast cancer cell lines), Hep G2 and Hep 3B (which are the liver cancer cell line), and A549 (which is lung cancer cell line). In addition, a normal human lung cell line (MRC-5) is served as the control group. All human cancer cell lines come from the American Type Culture Collection. The respective cell lines are cultured in RPMI-1640 medium with 10% (v/v) fetal calf serum, 100 U/ml penicillin and 100 µg/ml streptomycin, and incubated at 37° C. in 5% CO2 atmosphere.
# (§2) In the present invention, the cytotoxicity tests are performed with MTT (3-(4,5-dimethyl-thiazol-2-yl)-2,5-diphenyl tetrazolium bromide) method. The five cancer cell lines and the normal cell line (MRC-5) are firstly incubated in a 96-well culture dish with concentrations of 5,000˜10,000 cells/well. In Day 2, the respective incubated cells are added with the withanolide compounds of the present invention and Doxorubicin and are incubated for additional 72 hours. Afterwards, the incubated cells are examined with the MTT method including steps of dissolving the incubated cells in DMSO, and determining the absorbance of each cell line to each compound by a microplate reader in 550 nm to evaluate the cytotoxicity of each compound to each cell line. […] The IC50 represents the concentration of the compound that is required for 50% inhibition of the cell growth, and Doxorubicin serves as the positive control group.
# Hep 3B = experiment: MTT cytotoxicity test, Hep 3B; format: cell-based, human; settings: liver cancer cell line, 72 hours
# Protocol: as §1, §2
# MCF-7 = experiment: MTT cytotoxicity test, MCF-7; format: cell-based, human; settings: breast cancer cell line, 72 hours
# Protocol: as §1, §2
# A-549 = experiment: MTT cytotoxicity test, A-549; format: cell-based, human; settings: lung cancer cell line, 72 hours
# Protocol: as §1, §2
# MDA-MB-231 = experiment: MTT cytotoxicity test, MDA-MB-231; format: cell-based, human; settings: breast cancer cell line, 72 hours
# Protocol: as §1, §2
# MRC-5 = experiment: MTT cytotoxicity test, normal lung cell line MRC-5; format: cell-based; settings: normal human lung cell line, 72 hours
# Protocol: as §1, §2
SMILES,IC50 Hep G2 (Hep G2) [µg/mL],IC50 Hep 3B (Hep 3B) [µg/mL],IC50 MCF-7 (MCF-7) [µg/mL],IC50 A-549 (A-549) [µg/mL],IC50 MDA-MB-231 (MDA-MB-231) [µg/mL],IC50 MRC-5 (MRC-5) [µg/mL]
"CC1=C(C)C(=O)O[C@@H]([C@](C)(O)[C@@]23O[C@@H]2C[C@H]2[C@@H]4C[C@H]5O[C@]56[C@@H](O)C=CC(=O)[C@]6(C)[C@H]4CC[C@@]23C)C1 [Compound 9, 20-Hydroxytubocapsanolide A]",0.73,0.99,1.77,1.42,0.99,1.36
"CC1=C(C)C(=O)O[C@@H]([C@@H](C)[C@@]23O[C@@H]2C[C@H]2[C@@H]4C[C@H]5O[C@]56[C@@H](O)C=CC(=O)[C@]6(C)[C@H]4CC[C@@]23C)C1 [Compound 8, Tubocapsanolide A]",0.86,0.42,1.47,0.47,0.22,0.73
"C[C@@]12CC([C@@]3(O)CC[C@H]4[C@@H]5C[C@H](O)[C@]6(O)[C@@H](O)C=CC(=O)[C@]6(C)[C@H]5CC[C@@]43C)[C@@H](C1)OC(=O)[C@]2(C)O (stereo partly drawn) [Compound 20, Anomanolide B]",0.97,3.17,4.84,1.49,0.70,0.20
"CC1=C(C)C(=O)O[C@@H]([C@@H](C)[C@@]2(O)CC[C@H]3[C@@H]4C[C@H]5O[C@]56[C@@H](O)C=CC(=O)[C@]6(C)[C@H]4CC[C@@]32C)C1 [Compound 14, Tubocapsanolide F]",0.64,0.80,1.98,0.88,0.99,0.81
"C[C@@]12CC([C@@]3(O)CC[C@H]4[C@@H]5C[C@H]6O[C@]67[C@@H](O)C=CC(=O)[C@]7(C)[C@H]5CC[C@@]43C)[C@@H](C1)OC(=O)[C@]2(C)O (stereo partly drawn) [Compound 19, Anomanolide A]",3.11,3.63,2.31,1.01,1.37,1.91
